From US7390836B2, “Small molecules used to increase cell death” (priority 1999, dated 2008)

Assays:
BH3/Bcl-xL binding = test: SELDI binding assay, unlabeled Bak BH3 peptide on immobilized Bcl-xL-His6
Description: To test the possibility that BH3Is target the OREGON GREEN moiety of the fluorescently labeled BH3 peptide, a novel BH3/Bcl-xL binding assay using unlabeled BH3 peptide was designed. In this assay Bcl-xL was covalently attached to a surface-enhanced laser desorption/ionization (SELDI) chip, and binding of the unlabelled BH3 peptide to the immobilized protein was monitored by mass spectrometry. Specifically, purified recombinant GST-Bcl-2 and BCL-xL-His6 were coupled through their primary amines to SELDI chip surfaces derivatized with carbonyldiimidazole (Ciphergen). Bak BH3 peptide was then added (in a total volume of 1 μl) for 12 hours at 4° C. in a humidified chamber, to allow binding to each spot of the SELDI chip. The chip was then washed with alternating high and low pH-0.1M sodium acetate with 0.5M NaCl, followed by 0.01M HEPES; pH 7.3. The samples were embedded in α-cyanno-4-hydroxycinnamaic acid matrix and analyzed for mass by MALDI TOF. An average of 100 laser shots at a constant setting were collected over 20 spots in each sample.

Bcl-xL = target: T1, Bcl-xL (Homo sapiens, UniProt Q07817, DEL45-84); test: Bcl-xL pore formation, carboxyfluorescein release from liposomes; assay type: biochemical; details: 5 μM Bcl-xL-His6, pH 4.0
T1 construct: His6 (C); made in house
T1 sequence (Q07817 with tags, fused parts or gaps DEL45-84 limits assumed): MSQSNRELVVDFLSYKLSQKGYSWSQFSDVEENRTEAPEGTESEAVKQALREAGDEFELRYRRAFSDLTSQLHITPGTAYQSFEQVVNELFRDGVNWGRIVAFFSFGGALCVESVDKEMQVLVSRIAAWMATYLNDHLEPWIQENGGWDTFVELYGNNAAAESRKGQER
Method: Bcl-xL forms membrane pores, and the formation of these pores may play a role in Bcl-xL's ability to regulate apoptosis. Thus, the effects of the BH3Is on pore formation by Bcl-xL were tested (Minn, et al., Nature 385:353-7, 1997; Schendel et al., Proc. Natl. Acad. Sci. USA 94:5113-8, 1997; Minn et al., EMBO J. 18:632-43,1999; and Matsuyama et al., J. Biol. Chem. 273:30995-1001, 1998). Liposomes containing 20 mM of 5,6-carboxyfluorescein were prepared as previously described (Antonsson, et al., Science 277:370-2,1997). For Bcl-xL pore formation 5 μM Bcl-xL-His6 was preincubated with BH3I-2 or Bak BH3 peptide in 50 μl of 5 mM sodium citrate, 150 mM NaCl, pH 4.0 buffer for 10 min at 25° C., followed by addition of 5 μl of undiluted liposomes. Prior to determination of the fluorescence pH was adjusted by adding 10 μl of 1.5 M Tris-HCl, pH 7.5.

Bcl-xL-mediated release of carboxyfluorescein from liposomes (Bcl-xL): Neither BH3Is nor BH3 peptide affected
Sequence: KGGGQVGRQLAIIGDDINR (SEQ ID NO: 2) (BAK) [BH3 peptide, nineteen amino acid Bak peptide corresponding to the BH3 domain of Bak, reference compound]
binding of BH3 peptide to Bcl-xL-modified surface (BH3/Bcl-xL binding): bound to the Bcl-xL-modified surface in a dose-dependent fashion
